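Step 1: Grow cells in 96-well plates. Step 2: Expose to compound for 48 hours at 5 concentrations. Step 3: Interpolate endpoints linearly; if unreached, use highest concentration. The concentration for 50% growth inhibition is given as GI50.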 Activity calls are given as the source filed them. Cut-off read from the data, not from the text of the source: active = GI50 up to about 1.1 µM and inactive = higher.
What was measured:
Test in all cases: NCI tumour cell line growth inhibition, 48 h
CAKI-1 = tested on: CAKI-1
OVCAR-8 = tested on: OVCAR-8
EKVX = tested on: EKVX
TK-10 = tested on: TK-10
UACC-62 = tested on: UACC-62
T47D = tested on: T47D
OVCAR-3 = tested on: OVCAR-3
HCT-116 = tested on: HCT-116
SNB-19 = tested on: SNB-19
UACC-257 = tested on: UACC-257
SF-295 = tested on: SF-295
PC-3 = tested on: PC-3
NCI-H460 = tested on: NCI-H460
SK-MEL-5 = tested on: SK-MEL-5
ACHN = tested on: ACHN
CCRF-CEM = tested on: CCRF-CEM
MCF7 = tested on: MCF7
DU-145 = tested on: DU-145
A549 = tested on: A549
OVCAR-4 = tested on: OVCAR-4

Measured: GI50

CCCCC(C#N)(OP1(=O)OC(c2ccccc2)C(C)N1C)c1ccccc1 (configuration not stated)
inactive: CAKI-1 18.7 µM | OVCAR-8 17.6 µM | EKVX 22.5 µM | TK-10 18.9 µM | UACC-62 14.3 µM | T47D 21.3 µM | OVCAR-3 16.6 µM | HCT-116 16.2 µM | SNB-19 19.2 µM | UACC-257 18.3 µM | SF-295 17.5 µM | PC-3 17 µM | NCI-H460 16.1 µM | SK-MEL-5 17.3 µM | ACHN 19 µM | CCRF-CEM 20.3 µM | MCF7 19.9 µM | DU-145 19.7 µM | A549 20.1 µM

O=S(=O)(NC1CCCCC1)c1ccc2c(c1)OCCOCCOCCOCCO2
inactive: CAKI-1 > 100 µM | OVCAR-8 > 100 µM | EKVX > 100 µM | TK-10 > 100 µM | UACC-62 > 100 µM | T47D > 100 µM | HCT-116 > 100 µM | SNB-19 > 100 µM | UACC-257 > 100 µM | SF-295 > 100 µM | PC-3 > 100 µM | NCI-H460 > 100 µM | SK-MEL-5 > 100 µM | ACHN > 100 µM | CCRF-CEM > 100 µM | MCF7 > 100 µM | DU-145 > 100 µM | A549 > 100 µM

O=C1CCC2(CC1)Cc1ccccc1C2O (configuration not stated)
inactive: CAKI-1 > 100 µM | OVCAR-8 > 100 µM | EKVX > 100 µM | TK-10 > 100 µM | UACC-62 > 100 µM | T47D > 100 µM | HCT-116 > 100 µM | SNB-19 > 100 µM | UACC-257 > 100 µM | SF-295 > 100 µM | PC-3 > 100 µM | NCI-H460 > 100 µM | SK-MEL-5 > 100 µM | ACHN > 100 µM | OVCAR-4 > 100 µM | CCRF-CEM > 100 µM | MCF7 > 100 µM | DU-145 > 100 µM | A549 > 100 µM

O=C(/C=C/c1ccc2c(c1)OCO2)Cc1nc2ncccc2[nH]c1=O
inactive: CAKI-1 > 100 µM | OVCAR-8 59.8 µM | EKVX > 100 µM | TK-10 42.8 µM | UACC-62 9.53 µM | T47D 78.3 µM | OVCAR-3 > 100 µM | HCT-116 > 100 µM | SNB-19 63.8 µM | UACC-257 > 100 µM | SF-295 69.3 µM | PC-3 > 100 µM | NCI-H460 > 100 µM | SK-MEL-5 > 100 µM | ACHN 32.2 µM | CCRF-CEM > 100 µM | MCF7 > 100 µM | DU-145 > 100 µM | A549 > 100 µM

O=S(=O)(N=S(c1ccc(Cl)cc1)c1ccc(Cl)cc1)c1ccccc1
inactive: CAKI-1 > 100 µM | OVCAR-8 > 100 µM | EKVX > 100 µM | TK-10 > 100 µM | UACC-62 60.3 µM | T47D 47.5 µM | HCT-116 59.3 µM | SNB-19 > 100 µM | UACC-257 77.4 µM | SF-295 68.5 µM | PC-3 43.6 µM | NCI-H460 88.7 µM | SK-MEL-5 71 µM | ACHN > 100 µM | OVCAR-4 58.5 µM | CCRF-CEM 59.4 µM | MCF7 50.9 µM | DU-145 > 100 µM | A549 74.5 µM

CC(C)(C)NC(=O)[C@H]1CC[C@H]2[C@@H]3CC=C4NC(=O)CC[C@]4(C)[C@H]3CC[C@]12C
inactive: OVCAR-8 70.3 µM | EKVX > 100 µM | TK-10 46.8 µM | UACC-62 > 100 µM | T47D > 100 µM | OVCAR-3 > 100 µM | HCT-116 > 100 µM | SNB-19 > 100 µM | UACC-257 69.3 µM | SF-295 > 100 µM | PC-3 > 100 µM | NCI-H460 > 100 µM | SK-MEL-5 > 100 µM | ACHN > 100 µM | OVCAR-4 50.1 µM | CCRF-CEM > 100 µM | MCF7 32.4 µM | DU-145 > 100 µM | A549 > 100 µM

CC(=O)OCC(C)(COC(C)=O)N1C(=O)C2C3c4ccccc4C(c4ccccc43)C2C1=O (configuration not stated)
inactive: CAKI-1 > 100 µM | OVCAR-8 > 100 µM | EKVX > 100 µM | TK-10 > 100 µM | UACC-62 > 100 µM | T47D > 100 µM | OVCAR-3 > 100 µM | HCT-116 33 µM | SNB-19 > 100 µM | UACC-257 > 100 µM | SF-295 > 100 µM | PC-3 > 100 µM | NCI-H460 > 100 µM | SK-MEL-5 > 100 µM | ACHN > 100 µM | CCRF-CEM > 100 µM | MCF7 > 100 µM | DU-145 > 100 µM | A549 > 100 µM

O=C(/C=C/c1ccc(Cl)cc1)c1cccs1
inactive: CAKI-1 24 µM | OVCAR-8 21.7 µM | EKVX 26.6 µM | TK-10 20.8 µM | UACC-62 21 µM | T47D 21 µM | HCT-116 14.8 µM | SNB-19 18.2 µM | UACC-257 19.6 µM | SF-295 20 µM | PC-3 18.2 µM | NCI-H460 18.4 µM | SK-MEL-5 18.2 µM | ACHN 20 µM | OVCAR-4 > 10 µM | CCRF-CEM 6.61 µM | MCF7 3.62 µM | DU-145 40.6 µM | A549 29.1 µM

CCN(CC)c1nc(=O)c(C(=O)C(C)(C)C)c(C(C)(C)C)o1
inactive: CAKI-1 > 100 µM | OVCAR-8 > 100 µM | EKVX > 100 µM | TK-10 > 100 µM | UACC-62 > 100 µM | T47D > 100 µM | HCT-116 > 100 µM | SNB-19 98.4 µM | UACC-257 > 100 µM | SF-295 > 100 µM | PC-3 > 100 µM | NCI-H460 > 100 µM | SK-MEL-5 > 100 µM | ACHN > 100 µM | OVCAR-4 > 100 µM | CCRF-CEM > 100 µM | MCF7 > 100 µM | DU-145 > 100 µM | A549 > 100 µM

COc1ccc(OC)c2sc(N3C(=O)/C(=C/c4ccc(Cl)cc4)N=C3c3ccccc3)nc12
inactive: CAKI-1 > 100 µM | OVCAR-8 60.3 µM | EKVX > 100 µM | TK-10 72.6 µM | UACC-62 76.6 µM | T47D 23.3 µM | OVCAR-3 46.3 µM | HCT-116 > 100 µM | SNB-19 > 100 µM | UACC-257 51.2 µM | SF-295 76.6 µM | PC-3 58.1 µM | NCI-H460 80.5 µM | SK-MEL-5 65 µM | ACHN > 100 µM | CCRF-CEM 37 µM | MCF7 29.7 µM | DU-145 > 100 µM | A549 > 100 µM

N#Cc1nc(C(CO)N(Cc2ccccc2)C(=O)O)oc1N (configuration not stated)
inactive: CAKI-1 > 100 µM | OVCAR-8 > 100 µM | EKVX > 100 µM | TK-10 > 100 µM | UACC-62 > 100 µM | T47D > 100 µM | OVCAR-3 > 100 µM | HCT-116 > 100 µM | UACC-257 > 100 µM | SF-295 > 100 µM | PC-3 > 100 µM | NCI-H460 > 100 µM | SK-MEL-5 > 100 µM | ACHN > 100 µM | OVCAR-4 > 100 µM | MCF7 > 100 µM | DU-145 > 100 µM | A549 > 100 µM

From ChEMBL document CHEMBL1201862, “PubChem BioAssay data set” (2004)
